# Measurements from US20160310463A1, “LIQUID STATIN FORMULATION” (priority 2009, published 2016).
# Structures can show the parent of a compound that is named as a salt. Where two headings read alike, the source gives them in different places.
# Experiments:
# [1] = Simvastatin solubility screening, visual observation; type: physicochemical; settings: for Visual Appearance: 23° C.
# Description: The study was performed by visual observation of the samples at various time points followed by chemical testing of the centrifuged supernatant. Ten vehicles chosen for the solubility screen are referenced in Table 2 below. One (1 g) of each vehicle was dispensed into an Eppendorf tube. […] Samples not visually soluble, after about 21 hours, were heated to 60° C. while being mixed for 1 hour. Samples were allowed to reach room temperature, and visual observations were recorded. All samples were centrifuged for 10 minutes at 10,000 RPM.
# pediatric HeFH patients = settings: cited from earlier work
# children with HeFH [2] = test: Dirisamer et al.: low-dose simvastatin in children with HeFH; type: in vivo, human
# Description: If the range of LDL-C of 150-170 mg/dl was not reached within the first 8 weeks, the daily dosage was increased stepwise up to 20 mg. The cut-off level for LDL-C<170 mg/dl (range 150-170 mg/dl) was determined according to the high mean concentrations of LDL-C of the study population.
# children with HeFH [3] = settings: cited from earlier work
# [4] = test system: children younger than 17 years of age with hyperlipidemia; settings: mean dosage 16 mg once daily, cited from earlier work
# [5] = cited from earlier work
# [6] = pH of 7.0; cited from earlier work
# [7] = adults; estimate for the five statins together; cited from earlier work
# children and adolescents = settings: cited from earlier work
# [8] = test system: testicular endocrine function; settings: dogs, very high doses; cited from earlier work
# [9] = test system: adrenal and gonadal steroidogenesis; settings: humans, up to 80 mg/day, basal conditions; cited from earlier work
# [10] = test system: adrenocortical and testicular steroidogenesis; settings: males age 18-50 years, long-term therapy, cited from earlier work
# [11] = test system: HeFH children and adolescents; settings: 5 mg and 10 mg pravastatin; cited from earlier work
compound,measurement,setting,value
"CCC(C)(C)C(=O)O[C@@H]1C[C@H](C)C=C2C=C[C@@H](C)[C@@H](CC[C@@H]3C[C@H](O)CC(=O)O3)[C@@H]21 (relative stereo) [Simvastatin, butanoic acid, 2,2-dimethyl-,1,2,3,7,8,8a-hexahydro-3,7-dimethyl-8-[2-(tetrahydro-4-hydroxy-6-oxo-2H-pyran-2-yl)-ethyl]-1-naphthalenyl ester, [1S-[1α,3α,7β,8β(2S*,4S*),-8aβ]]]",Visual Appearance,"[1]; 2.5 mg in 1 g 5% SLS in Water, 30 Min to ~21 Hrs",Clear colorless liquid w/ air bubbles
same,Visual Appearance,"[1]; 2.5 mg in 1 g Captex 500 P, 30 Min to ~21 Hrs",Clear colorless liquid
same,Visual Appearance after Application of Heat (60° C.) for 1 Hour and Cooled to Room Temperature,[1]; 2.5 mg in 1 g E. Pure Water,Hazy liquid w/ white powder and air bubbles
same,Visual Appearance,"[1]; 2.5 mg in 1 g E. Pure Water, 30 Min to ~21 Hrs",Cloudy liquid w/ white powder
same,Visual Appearance after Application of Heat (60° C.) for 1 Hour and Cooled to Room Temperature,[1]; 2.5 mg in 1 g Glycerine,Slightly hazy liquid w/ some white powder
same,Visual Appearance,"[1]; 2.5 mg in 1 g Glycerine, Initial to ~21 Hrs","Stiff clear, colorless liquid w/ white powder"
same,Visual Appearance,"[1]; 2.5 mg in 1 g Labrafil M 2125 CS, merged cell, Initial to about 2 Hrs",Yellow liquid w/ white powder
same,Visual Appearance,"[1]; 2.5 mg in 1 g Labrasol, 30 Min to ~21 Hrs",Pale yellow liquid
same,Visual Appearance,"[1]; 2.5 mg in 1 g PEG 400, 30 Min to ~21 Hrs",Clear colorless liquid
same,Visual Appearance after Application of Heat (60° C.) for 1 Hour and Cooled to Room Temperature,[1]; 2.5 mg in 1 g Polysorbate 80,Clear yellow liquid w/ some white residue
same,Visual Appearance,"[1]; 2.5 mg in 1 g Polysorbate 80, Initial to ~21 Hrs",Yellow liquid w/ white powder
same,Visual Appearance,"[1]; 2.5 mg in 1 g Propylene Glycol, 30 Min to ~21 Hrs",Clear colorless liquid
same,"change in total-C, LDL-C and ApoB compared with placebo",pediatric HeFH patients; at 24 weeks,significant (P<0.001) reductions
same,change in HDL-C and ApoA1,pediatric HeFH patients; only significant relative to placebo at week 24 (P<0.05),increased for all weeks
same,results from the extension at 48 weeks,pediatric HeFH patients; simvastatin 40 mg,comparable to those observed in the base study
same,change in triglycerides,"pediatric HeFH patients; weeks 8, 16, and 48",Significant reductions
same,higher LDL-C reduction compared with other statins tested in young HeFH patients,children with HeFH [2]; 5 mg and 10 mg simvastatin period,~10%
same,share of the mean LDL-C reduction of the highest dose (20 mg/day) reached by the lowest dose (5 mg/day),children with HeFH [2]; in vivo,more than 70%
same,patients reaching the recommended therapeutic level (LDL-C<170 mg/dl) within the first period,"children with HeFH [3]; 5 mg simvastatin daily, nine patients started with 5 mg",four
same,percentage decrease in LDL-C concentration,children with HeFH [3]; 5 mg simvastatin period,25%
same,percentage decrease in total cholesterol,children with HeFH [3]; 5 mg simvastatin period,19%
same,patients reaching the recommended therapeutic level within the first period,"children with HeFH [3]; 10 mg simvastatin daily, 11 patients started with 10 mg",Six
same,percentage decrease in LDL-C concentration,children with HeFH [3]; 10 mg simvastatin period,30%
same,percentage decrease in total cholesterol,children with HeFH [3]; 10 mg simvastatin period,26%
same,percentage decrease in LDL-C concentration,children with HeFH [3]; 20 mg simvastatin period,36%
same,percentage decrease in total cholesterol,children with HeFH [3]; 20 mg simvastatin period,29%
same,side effects that could be related to simvastatin,"children with HeFH [3]; 5, 10 and 20 mg dosage periods",few and equally distributed among the three dosage periods
same,"subjects with abnormal levels of routine safety parameters (CK, ALAT, GGT)",children with HeFH [3]; group of 20 girls and boys,three
same,fall of circulating LDL-C at week 104,[4]; in 1 patient,15-20%
same,fall of circulating LDL-C at week 104,[4]; in 7 patients,40-60%
same,fall of circulating LDL-C at week 104,[4]; in 8 patients,20-40%
"CC(C)c1nc(N(C)S(C)(=O)=O)nc(-c2ccc(F)cc2)c1/C=C/C(O)C[C@@H](O)CC(=O)O (stereo in doubt) [Rosuvastatin calcium, bis[(E)-7-[4-(4-fluorophenyl)-6-isopropyl-2-[methyl(methylsulfonyl)amino]pyrimidin-5-yl](3R,5S)-3,5-dihydroxyhept-6-enoic acid] calcium salt]",solubility,[5]; in ethanol,slightly soluble
same,solubility,[5]; in water and methanol,sparingly soluble
same,partition coefficient (octanol/water),[6],0.13
"CC(C)c1c(C(=O)Nc2ccccc2)c(-c2ccccc2)c(-c2ccc(F)cc2)n1CC[C@@H](O)C[C@@H](O)CC(=O)O [Atorvastatin, (3R, 5R)-7-[2-(4-fluorophenyl)-3-phenyl-4-(phenylcarbamoyl)-5-(propan-2-yl)-1H-pyrrol-1-yl]-3,5-dihydroxyheptanoic acid]",occurrence of rhabdomyolysis,[7],3 per 100 000 person-years
COCc1c(C(C)C)nc(C(C)C)c(/C=C/[C@@H](O)C[C@@H](O)CC(=O)O)c1-c1ccc(F)cc1 [Cerivastatin sodium],solubility,[5]; in acetone,very slightly soluble
same,solubility,"[5]; in water, methanol, and ethanol",soluble
"CC[C@H](C)C(=O)O[C@H]1C[C@@H](C)C=C2C=C[C@H](C)[C@H](CC[C@@H]3C[C@@H](O)CC(=O)O3)[C@H]21 [Lovastatin, (1S,3R,7S,8S,8aR)-8-{2-[(2R,4R)-4-hydroxy-6-oxooxan-2-yl]ethyl}-3,7-dimethyl-1,2,3,7,8,8a-hexahydronaphthalen-1-yl (2S)-2-methylbutanoate]",LDL-C reduction,children and adolescents; 10 mg lovastatin,21%
same,LDL-C reduction,children and adolescents; 20 mg lovastatin,24%
same,share of the mean LDL-C reduction of the highest dose of 40 reached by the lowest dose (10 mg/day),children and adolescents; in vivo,more than 50%
same,occurrence of rhabdomyolysis,[7],3 per 100 000 person-years
same,effect on testicular endocrine function,[8],reduction in testicular endocrine function
same,effect on adrenal and gonadal steroidogenesis,[9],no effect
"CC[C@H](C)C(=O)O[C@H]1C[C@H](O)C=C2C=C[C@H](C)[C@H](CC[C@@H](O)C[C@@H](O)CC(=O)O)[C@H]21 [Pravastatin, (bR,dR,1S,2S,6S,8S,8aR)-1,2,6,7,8,8a-Hexahydro-b,d,6-trihydroxy-2-methyl-8-[(2S)-2-methyl-1-oxobutoxy]-1-naphthaleneheptanoic acid monosodium salt]",interference with adrenal and testicular steroidogenesis,[10]; maximum stimulation,did not interfere
same,serum testosterone levels,[10],remained unchanged
same,occurrence of rhabdomyolysis,[7],3 per 100 000 person-years
same,average decrease in LDL-C concentration,[11],23%
"[R.,S.-(E)]-(±)-7-[3-(4-fluorophenyl)-1-(1-methylethyl)-1H-indol-2-yl]-3,5-dihydroxy-6-heptenoic acid, monosodium salt [Fluvastatin]",occurrence of rhabdomyolysis,[7],3 per 100 000 person-years
